According to ChEMBL document CHEMBL5724914, “Linking interpersonal differences in gut microbiota composition and drug biotransformation activity” (2024):

Experiments:
[1] = (§1) The drug is tested on Z-027 corresponding to metagenome with ENA study accession number: PRJEB37062 and ENA sample accession number: ERS12561826 for biotransformation under anaerobic condition. The drug concentrations were measured over 9 timepoints collected between 0 and 24 hours of incubation by liquid-chromatography-coupled mass spectrometry (LC–MS); conditions: 2 µM
[2] = human gut metagenome, 24 h, 2 µM
[3] = (§2) The drug is tested on WLS-038 corresponding to human gut metagenome with ENA study accession number: PRJEB37062 and ENA sample accession number: ERS12561745 for biotransformation under anaerobic condition. The drug concentrations were measured over 9 timepoints collected between 0 and 24 hours of incubation by liquid-chromatography-coupled mass spectrometry (LC–MS); conditions: 2 µM
[4] = human gut metagenome, 24 h, 2 µM; remark: listed apart in the source
[5] = human gut metagenome, 24 h, 2 µM; remark: listed apart in the source
[6] = as §2, with “Z-019” for “WLS-038”, “rat” for “human”, “ERS12561818” for “ERS12561745”; conditions: 2 µM
[7] = as §2, with “Z-028” for “WLS-038”, “mouse” for “human”, “ERS12561827” for “ERS12561745”; conditions: 2 µM
[8] = as §1, with “Z-010” for “Z-027”, “ERS12561810” for “ERS12561826”; conditions: 2 µM
[9] = as §1, with “Z-004” for “Z-027”, “ERS12561804” for “ERS12561826”; conditions: 2 µM
[10] = as §2, with “Z-016” for “WLS-038”, “mouse” for “human”, “ERS12561815” for “ERS12561745”; conditions: 2 µM
[11] = human gut metagenome, 24 h, 2 µM; remark: listed apart in the source
[12] = as §2, with “Z-030” for “WLS-038”, “mouse” for “human”, “ERS12561829” for “ERS12561745”; conditions: 2 µM
[13] = human gut metagenome, 24 h, 2 µM; remark: listed apart in the source
[14] = human gut metagenome, 24 h, 2 µM; remark: listed apart in the source
[15] = as §2, with “WLS-098” for “WLS-038”, “ERS12561754” for “ERS12561745”; conditions: 2 µM
[16] = human gut metagenome, 24 h, 2 µM; remark: listed apart in the source
[17] = as §2, with “WLS-240” for “WLS-038”, “ERS12561773” for “ERS12561745”; conditions: 2 µM
[18] = as §2, with “Z-011” for “WLS-038”, “mouse” for “human”, “ERS12561811” for “ERS12561745”; conditions: 2 µM
[19] = human gut metagenome, 24 h, 2 µM; remark: listed apart in the source
[20] = human gut metagenome, 24 h, 2 µM; remark: listed apart in the source
Note: call rule not given here.

| Bacterial Biotransformation [1] | Bacterial Biotransformation [2] | Bacterial Biotransformation [3] | Bacterial Biotransformation [4] | Bacterial Biotransformation [5] | Bacterial Biotransformation [6] | Bacterial Biotransformation [7] | Bacterial Biotransformation [8] | Bacterial Biotransformation [9] | Bacterial Biotransformation [10] | Bacterial Biotransformation [11] | Bacterial Biotransformation [12] | Bacterial Biotransformation [13] | Bacterial Biotransformation [14] | Bacterial Biotransformation [15] | Bacterial Biotransformation [16] | Bacterial Biotransformation [17] | Bacterial Biotransformation [18] | Bacterial Biotransformation [19] | Bacterial Biotransformation [20] | SMILES |
| --- | --- | --- | --- | --- | --- | --- | --- | --- | --- | --- | --- | --- | --- | --- | --- | --- | --- | --- | --- | --- |
| Compound metabolized | Compound NOT metabolized | Compound metabolized | Compound NOT metabolized | Compound NOT metabolized | Compound NOT metabolized | Compound NOT metabolized | Compound metabolized | Compound metabolized | Compound NOT metabolized | Compound metabolized | Compound NOT metabolized | Compound NOT metabolized | Compound NOT metabolized | Compound metabolized | Compound metabolized | Compound NOT metabolized | Compound metabolized | Compound NOT metabolized | Compound metabolized | CN[C@H]1CC[C@@H](c2ccc(Cl)c(Cl)c2)c2ccccc21 [SERTRALINE] |
| Compound NOT metabolized | Compound NOT metabolized | Compound NOT metabolized | Compound NOT metabolized | Compound NOT metabolized | Compound NOT metabolized | Compound NOT metabolized | Compound NOT metabolized | Compound NOT metabolized | Compound NOT metabolized | Compound NOT metabolized | Compound NOT metabolized | Compound NOT metabolized | Compound NOT metabolized | Compound metabolized | Compound NOT metabolized | Compound NOT metabolized | Compound NOT metabolized | Compound NOT metabolized | Compound NOT metabolized | CCOc1ccccc1OCCN[C@H](C)Cc1ccc(OC)c(S(N)(=O)=O)c1.Cl [TAMSULOSIN HYDROCHLORIDE] |
| Compound NOT metabolized | Compound NOT metabolized | Compound NOT metabolized | Compound NOT metabolized | Compound metabolized | Compound NOT metabolized | Compound NOT metabolized | Compound metabolized | Compound NOT metabolized | Compound NOT metabolized | Compound metabolized | Compound NOT metabolized | Compound metabolized | Compound metabolized | Compound metabolized | Compound NOT metabolized | Compound metabolized | Compound metabolized | Compound NOT metabolized | Compound NOT metabolized | COc1cc2nc(N3CCN(C(=O)C4CCCO4)CC3)nc(N)c2cc1OC (stereo not given) [TERAZOSIN] |
| Compound NOT metabolized | Compound NOT metabolized | Compound NOT metabolized | Compound NOT metabolized | Compound NOT metabolized | Compound NOT metabolized | Compound NOT metabolized | Compound NOT metabolized | Compound NOT metabolized | Compound NOT metabolized | Compound NOT metabolized | Compound NOT metabolized | Compound NOT metabolized | Compound NOT metabolized | Compound metabolized | Compound NOT metabolized | Compound metabolized | Compound NOT metabolized | Compound NOT metabolized | Compound NOT metabolized | c1ccc2[nH]c(-c3cscn3)nc2c1 [THIABENDAZOLE] |
| Compound NOT metabolized | Compound NOT metabolized | Compound NOT metabolized | Compound NOT metabolized | Compound metabolized | Compound NOT metabolized | Compound NOT metabolized | Compound NOT metabolized | Compound NOT metabolized | Compound NOT metabolized | Compound metabolized | Compound NOT metabolized | Compound metabolized | Compound NOT metabolized | Compound metabolized | Compound NOT metabolized | Compound metabolized | Compound metabolized | Compound NOT metabolized | Compound NOT metabolized | CCN(CC)CCNC(=O)c1cc(S(C)(=O)=O)ccc1OC [TIAPRIDE] |
| Compound NOT metabolized | Compound NOT metabolized | Compound NOT metabolized | Compound NOT metabolized | Compound NOT metabolized | Compound NOT metabolized | Compound NOT metabolized | Compound NOT metabolized | Compound NOT metabolized | Compound NOT metabolized | Compound NOT metabolized | Compound NOT metabolized | Compound NOT metabolized | Compound NOT metabolized | Compound NOT metabolized | Compound NOT metabolized | Compound NOT metabolized | Compound NOT metabolized | Compound NOT metabolized | Compound NOT metabolized | CC(C)(C)NC[C@H](O)COc1nsnc1N1CCOCC1.O=C(O)/C=C\C(=O)O [TIMOLOL MALEATE] |

| SMILES | Bacterial Biotransformation [1] | Bacterial Biotransformation [2] | Bacterial Biotransformation [3] | Bacterial Biotransformation [4] | Bacterial Biotransformation [5] | Bacterial Biotransformation [6] | Bacterial Biotransformation [7] | Bacterial Biotransformation [8] | Bacterial Biotransformation [9] | Bacterial Biotransformation [10] | Bacterial Biotransformation [11] | Bacterial Biotransformation [12] | Bacterial Biotransformation [13] | Bacterial Biotransformation [14] | Bacterial Biotransformation [15] | Bacterial Biotransformation [16] | Bacterial Biotransformation [17] | Bacterial Biotransformation [18] | Bacterial Biotransformation [19] | Bacterial Biotransformation [20] |
| --- | --- | --- | --- | --- | --- | --- | --- | --- | --- | --- | --- | --- | --- | --- | --- | --- | --- | --- | --- | --- |
| O=C(O)CCC(=O)O.O=C(O[C@H]1CN2CCC1CC2)N1CCc2ccccc2[C@@H]1c1ccccc1 [SOLIFENACIN SUCCINATE] | Compound NOT metabolized | Compound NOT metabolized | Compound metabolized | Compound NOT metabolized | Compound metabolized | Compound NOT metabolized | Compound NOT metabolized | Compound metabolized | Compound metabolized | Compound NOT metabolized | Compound metabolized | Compound NOT metabolized | Compound NOT metabolized | Compound metabolized | Compound metabolized | Compound metabolized | Compound metabolized | Compound NOT metabolized | Compound NOT metabolized | Compound NOT metabolized |
| O=C(CCCN1CCC2(CC1)C(=O)NCN2c1ccccc1)c1ccc(F)cc1 [SPIPERONE] | Compound NOT metabolized | Compound NOT metabolized | Compound NOT metabolized | Compound NOT metabolized | Compound metabolized | Compound NOT metabolized | Compound NOT metabolized | Compound metabolized | Compound NOT metabolized | Compound NOT metabolized | Compound metabolized | Compound NOT metabolized | Compound metabolized | Compound NOT metabolized | Compound metabolized | Compound NOT metabolized | Compound NOT metabolized | Compound NOT metabolized | Compound NOT metabolized | Compound metabolized |
